From ChEMBL document CHEMBL1130083, “Discovery of prototype peptidomimetic agonists at the human melanocortin receptors MC1R and MC4R” (J Med Chem, 1997)

Tests used:
[1] = test system: MCR; experiment: Effective concentration was measured against frog skin MCR cells at 10 e-4 10 e-12 M Concentration.; type: functional, cell-based; conditions: Anura
[2] = target: Melanocortin receptor 5 (Homo sapiens, UniProt P33032); experiment: Displacement of [125I]NDP-MSH from Melanocortin 5 receptor at 10 uM
Melanocortin receptor 5, sequence (P33032 whole entry): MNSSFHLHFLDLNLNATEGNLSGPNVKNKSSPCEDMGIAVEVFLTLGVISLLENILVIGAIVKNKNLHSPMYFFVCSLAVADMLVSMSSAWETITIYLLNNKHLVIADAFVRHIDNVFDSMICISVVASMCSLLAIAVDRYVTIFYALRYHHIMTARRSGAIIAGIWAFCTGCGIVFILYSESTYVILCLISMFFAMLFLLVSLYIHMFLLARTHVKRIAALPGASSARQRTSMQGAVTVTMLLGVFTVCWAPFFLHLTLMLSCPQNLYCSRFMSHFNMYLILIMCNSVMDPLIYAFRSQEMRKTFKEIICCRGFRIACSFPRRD

[3] = target: Melanocortin receptor 3 (Homo sapiens, UniProt P41968); experiment: Displacement of [125I]NDP-MSH from Melanocortin 3 receptor at 10 uM
Melanocortin receptor 3, sequence (P41968 whole entry): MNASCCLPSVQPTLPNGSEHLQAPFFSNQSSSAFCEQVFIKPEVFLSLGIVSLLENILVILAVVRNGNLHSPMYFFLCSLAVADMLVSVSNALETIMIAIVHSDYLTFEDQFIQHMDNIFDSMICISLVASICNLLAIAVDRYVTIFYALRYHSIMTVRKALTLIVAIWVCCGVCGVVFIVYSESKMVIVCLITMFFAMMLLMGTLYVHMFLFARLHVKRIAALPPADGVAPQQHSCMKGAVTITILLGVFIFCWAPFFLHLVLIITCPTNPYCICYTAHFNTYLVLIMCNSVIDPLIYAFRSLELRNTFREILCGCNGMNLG

[4] = target: T1, Melanocyte-stimulating hormone receptor (Homo sapiens, UniProt Q01726); experiment: Displacement of [125I]NDP-MSH from Melanocortin 1 receptor at 10 uM
T1 sequence (Q01726 whole entry): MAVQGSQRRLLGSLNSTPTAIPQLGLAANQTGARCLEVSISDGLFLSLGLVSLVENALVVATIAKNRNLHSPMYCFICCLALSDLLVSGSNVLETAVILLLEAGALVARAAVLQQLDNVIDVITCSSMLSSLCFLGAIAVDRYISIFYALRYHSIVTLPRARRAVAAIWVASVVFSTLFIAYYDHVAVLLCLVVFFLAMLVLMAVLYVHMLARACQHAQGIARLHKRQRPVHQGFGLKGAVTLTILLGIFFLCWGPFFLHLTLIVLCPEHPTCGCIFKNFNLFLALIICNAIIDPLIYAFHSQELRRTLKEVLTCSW

[5] = target: T1, Melanocyte-stimulating hormone receptor; experiment: effective concentration of peptide at 50% maximal cAMP accumulation on Melanocortin 1 receptor; type: functional
[6] = target: Melanocortin receptor 4 (Homo sapiens, UniProt P32245); experiment: Displacement of [125I]NDP-MSH from Melanocortin 4 receptor at 10 uM
Melanocortin receptor 4, sequence (P32245 whole entry): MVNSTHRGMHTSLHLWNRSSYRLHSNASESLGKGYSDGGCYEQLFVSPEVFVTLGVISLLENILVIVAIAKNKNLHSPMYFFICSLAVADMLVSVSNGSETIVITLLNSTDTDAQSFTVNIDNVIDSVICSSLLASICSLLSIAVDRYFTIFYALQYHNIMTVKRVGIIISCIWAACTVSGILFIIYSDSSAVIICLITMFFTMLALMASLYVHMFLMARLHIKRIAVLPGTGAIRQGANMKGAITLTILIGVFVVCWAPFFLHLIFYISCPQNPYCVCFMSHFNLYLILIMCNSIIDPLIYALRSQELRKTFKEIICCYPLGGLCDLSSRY

[7] = test system: MCR; experiment: Effective concentration was measured against frog skin(MCR) cells at 10 e-4 10 e-12 M Concentration.; type: functional, cell-based; conditions: Anura

Structure (SMILES) | EC50 [1] [µM] | IC50 [2] [µM] | IC50 [3] [µM] | IC50 [4] [µM] | EC50 [5] [µM] | IC50 [6] [µM] | EC50 [7] [µM]
CC(=O)N[C@@H](Cc1c[nH]cn1)C(=O)N[C@H](Cc1ccccc1)C(=O)N[C@H](CCCN=C(N)N)C(=O)N[C@@H](Cc1c[nH]c2ccccc12)C(N)=O | 10 | > 10 | > 10 | > 10 | – | – | –
CC(=O)N[C@@H](Cc1cnc[nH]1)C(=O)N[C@H](Cc1ccccc1)C(=O)N[C@@H](CCCNC(=N)N)C(=O)N[C@@H](Cc1c[nH]c2ccccc12)C(N)=O | 0.2 | > 10 | > 10 | 0.615 | 0.228 | – | –
CC(=O)N[C@@H](Cc1c[nH]cn1)C(=O)N[C@@H](Cc1ccccc1)C(=O)N[C@@H](CCCN=C(N)N)C(=O)N[C@H](Cc1c[nH]c2ccccc12)C(N)=O | 2 | > 10 | > 10 | 6.35 | 1.43 | – | –
CC(=O)N[C@H](Cc1ccccc1)C(=O)N[C@H](CCCN=C(N)N)C(=O)N[C@@H](Cc1c[nH]c2ccccc12)C(N)=O | 5.5 | > 10 | > 10 | > 10 | – | > 10 | –
CC(=O)N[C@@H](Cc1c[nH]cn1)C(=O)N[C@H](Cc1ccccc1)C(=O)N[C@H](CCCN=C(N)N)C(=O)N[C@H](Cc1c[nH]c2ccccc12)C(N)=O | 1.9 | > 10 | > 10 | > 10 | – | – | –
CC(=O)NCC(=O)N[C@H](Cc1ccccc1)C(=O)N[C@@H](CCCN=C(N)N)C(=O)N[C@H](Cc1c[nH]c2ccccc12)C(N)=O | 4.2 | > 10 | > 10 | > 10 | – | > 10 | –
CC(=O)N[C@H](Cc1ccccc1)C(=O)N[C@@H](CCCN=C(N)N)C(=O)N[C@@H](Cc1c[nH]c2ccccc12)C(N)=O | – | > 10 | > 10 | > 10 | – | 2.08 | 30
CC(=O)N[C@H](Cc1ccccc1)C(=O)N[C@@H](CCCNC(=N)N)C(=O)N[C@H](Cc1c[nH]c2ccccc12)C(N)=O | – | > 10 | > 10 | > 10 | – | 9.16 | 1.5
CC(=O)N[C@@H](Cc1ccccc1)C(=O)N[C@H](CCCN=C(N)N)C(=O)N[C@H](Cc1c[nH]c2ccccc12)C(N)=O | > 100 | > 10 | > 10 | > 10 | – | > 10 | –
CC(=O)N[C@H](Cc1ccccc1)C(=O)N[C@H](CCCNC(=N)N)C(=O)N[C@H](Cc1c[nH]c2ccccc12)C(N)=O | > 100 | > 10 | > 10 | > 10 | – | > 10 | –
CC(=O)N[C@@H](Cc1ccccc1)C(=O)N[C@@H](CCCNC(=N)N)C(=O)N[C@H](Cc1c[nH]c2ccccc12)C(N)=O | > 100 | > 10 | > 10 | > 10 | – | > 10 | –
